Test results reported in patent publication US8269000B2, “Substituted pyrimidine and triazine compounds” (Gruenenthal GmbH, priority 2008, dated 2012).
Counter-ions that a name gives are not always drawn.

What was measured:
human B1R = target: T1, human B1R (Homo sapiens, UniProt P46663); assay: FLIPR Ca2+ functional study on bradykinin receptor 1 (hB1R CHO K1 cells); format: cell-based; details: % inhibition human B1R at 10 μM, read-out: % inh. (hum. B1R) 10 μM
T1 construct: expressed in transfected cells; host or cells: CHO K1 cells
T1 sequence (P46663 1-353): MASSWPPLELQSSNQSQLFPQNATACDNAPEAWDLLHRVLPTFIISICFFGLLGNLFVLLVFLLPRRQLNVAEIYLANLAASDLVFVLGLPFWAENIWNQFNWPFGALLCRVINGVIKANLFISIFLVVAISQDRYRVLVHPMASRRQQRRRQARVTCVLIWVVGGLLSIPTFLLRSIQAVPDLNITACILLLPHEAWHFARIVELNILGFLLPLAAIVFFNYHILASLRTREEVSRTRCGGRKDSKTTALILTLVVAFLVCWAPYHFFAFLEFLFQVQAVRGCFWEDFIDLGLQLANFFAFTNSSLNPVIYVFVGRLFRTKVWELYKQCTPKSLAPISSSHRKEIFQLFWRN
Protocol: The agonistic or antagonistic activity of substances can be quantified on the bradykinin receptor 1 (B1R) of the species human and rat using ectopically expressing cell lines (CHO K1 cells) and with the aid of a Ca^2+-sensitive dye (Fluo-4) using a fluorescent imaging plate reader (FLIPR). The indication in % activation is based on the Ca^2+ signal after addition of Lys-Des-Arg^9-bradykinin (0.5 nM) or Des-Arg^9-bradykinin (100 nM). Antagonists lead to suppression of the Ca^2+ influx after the addition of the agonist. % Inhibition compared with the maximum achievable inhibition is indicated.
The agonistic or antagonistic activity of substances can be determined on the bradykinin receptor 1 (B1R) of the species human and rat using the following assay. According to this assay, the Ca^2+ influx through the channel is quantified with the aid of a Ca^2+-sensitive dye (Fluo-4 type, Molecular Probes Europe BV, Leiden, Netherlands) using a Fluorescent Imaging Plate Reader (FLIPR, Molecular Devices, Sunnyvale, USA).
Chinese hamster ovary cells (CHO K1 cells) which have been stably transfected with the human B1R gene (hB1R cells) or with the B1R gene of the rat (rB1R cells) are used. For functional studies, the cells are plated out on black 96-well plates having a clear base (BD Biosciences, Heidelberg, Germany or Greiner, Frickenhausen, Germany) in a density of 20,000-35,000 cells/well. The cells are left overnight at 37° C. and with 5% CO2 in culture medium (hB1R cells: Nutrient Mixture Ham's F12, Gibco Invitrogen GmbH, Karlsruhe, Germany or DMEM, Sigma-Aldrich, Taufkirchen, Germany; rB1R cells: D-MEM/F12, Gibco Invitrogen GmbH, Karlsruhe, Germany), with 10 vol.% FBS (fetal bovine serum, Gibco Invitrogen GmbH, Karlsruhe, Germany or PAN Biotech GmbH, Aidenbach, Germany). On the following day, the cells are loaded for 60 minutes at 37° C. with 2.13 μM Fluo-4 (Molecular Probes Europe BV, Leiden, Netherlands) in HBSS buffer (Hank's buffered saline solution, Gibco Invitrogen GmbH, Karlsruhe, Germany) […] (Sigma-Aldrich, Taufkirchen, Germany) and 10 mM HEPES (Sigma-Aldrich, Taufkirchen, Germany). The plates are then washed twice with HBSS buffer, and HBSS buffer additionally containing 0.1% BSA (bovine serum albumin; Sigma-Aldrich, Taufkirchen, Germany), 5.6 mM glucose and 0.05% gelatin (Merck KGaA, Darmstadt, Germany) is added to the plates. After incubation for a further 20 minutes at room temperature, the plates are inserted into the FLIPR for Ca^2+ measurement. Alternatively, washing is carried out with buffer A (15 mM HEPES, 80 mM NaCl, 5 mM KCl, 1.2 mM CaCl2, 0.7 mM MgSO4, 2 g/l glucose, 2.5 mM probenecid) followed by loading with buffer A with added 2.5 μM Fluo-4 and 0.025% Pluronic F127 (Sigma-Aldrich, Taufkirchen, Germany). The cells are then washed twice with buffer A and incubated for 30 minutes at room temperature with buffer A additionally containing 0.05% BSA and 0.05% gelatin and are then inserted into the FLIPR for Ca^2+ measurement. The Ca^2+-dependent fluorescence is measured before and after the addition of substances (λex=488 nm, λem=540 nm). Quantification is carried out by measuring the highest fluorescence intensity (FC, fluorescence counts) over time.
The FLIPR protocol consists of two substance additions. Test substances (10 μM) are first pipetted onto the cells and the Ca^2+ influx is compared with the control (hB1R: Lys-Des-Arg^9-bradykinin>=50 nM; rB1R: Des-Arg^9-bradykinin 10 μM). This gives the activation in %, based on the Ca^2+ signal after addition of Lys-Des-Arg^9-bradykinin (>=50 nM) or Des-Arg^9-bradykinin (10 μM). After 10-20 minutes' incubation, Lys-Des-Arg^9-bradykinin (hB1R) or Des-Arg^9-bradykinin (rB1R) is applied in the concentration of the EC80, and the influx of Ca^2+ is likewise determined. Antagonists lead to suppression of the Ca^2+ influx. The % inhibition compared with the maximum achievable inhibition is calculated. […]

rat B1R = target: T2, rat B1R (Rattus norvegicus, UniProt P97583); assay: FLIPR Ca2+ functional study on bradykinin receptor 1 (rB1R CHO K1 cells); format: cell-based; details: for inhibition at 10 µM: CHO-K1, % inhibition rat B1R at 10 μM, read-out: % inh. (rat B1R) 10 μM; for % inh. (rat B1R) 10 μM: % inhibition rat B1R at 10 μM
T2 construct: expressed in transfected cells; host or cells: CHO K1 cells
T2 sequence (P97583 1-337): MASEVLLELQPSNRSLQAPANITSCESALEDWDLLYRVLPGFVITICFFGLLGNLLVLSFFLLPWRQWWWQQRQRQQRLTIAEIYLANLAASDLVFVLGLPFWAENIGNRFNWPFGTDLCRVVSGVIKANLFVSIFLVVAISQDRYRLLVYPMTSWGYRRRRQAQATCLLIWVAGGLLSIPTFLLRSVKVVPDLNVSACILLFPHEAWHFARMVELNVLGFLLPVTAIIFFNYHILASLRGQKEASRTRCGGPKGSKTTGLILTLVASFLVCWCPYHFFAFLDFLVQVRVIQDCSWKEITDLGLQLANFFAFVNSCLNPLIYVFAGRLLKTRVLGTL
In short: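 Antagonism was calculated as % of maximal inhibition of the Ca2+ rise triggered by agonist at EC80 (Lys-Des-Arg9-bradykinin for hB1R, Des-Arg9-bradykinin for rB1R), added 10-20 min after test compound (10 μM or serial dilutions for IC50) to Fluo-4-loaded transfected CHO K1 cells on FLIPR. Duplicates or triplicates, ≥2 independent runs.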

## COc1cc(C)c(S(=O)(=O)N(C)CCOc2nccc(N3CCC(CCN4CCCC4)CC3)n2)c(C)c1 [Example G-001, 4-methoxy-N,2,6-trimethyl-N-[2-[[4-[4-(2-1-pyrrolidinylethyl)-1-piperidinyl]-2-pyrimidinyl]oxy]ethyl]benzenesulfonamide]
Human B1R
  inhibition at 10 µM: 84%
Rat B1R
  inhibition at 10 µM: 99%

## COc1cc(C)c(S(=O)(=O)N(C)CCOc2nccc(N3CCN(c4ccncc4)CC3)n2)c(C)c1 [Example G-002, 4-methoxy-N,2,6-trimethyl-N-[2-[[4-[4-(4-pyridyl)-1-piperazinyl]-2-pyrimidinyl]oxy]ethyl]benzenesulfonamide]
Human B1R
  inhibition at 10 µM: 97%
Rat B1R
  inhibition at 10 µM: 109%

## COc1cc(C)c(S(=O)(=O)N(C)CCOc2nccc(N(C)CCN3CCC(c4ccccc4)(N(C)C)CC3)n2)c(C)c1 [Example G-003, N-[2-[[4-[2-(4-dimethylamino-4-phenyl-1-piperidinyl)ethyl-methylamino]-2-pyrimidinyl]oxy]ethyl]-4-methoxy-N,2,6-trimethylbenzenesulfonamide]
Human B1R
  inhibition at 10 µM: 101%
Rat B1R; 10 µM
  % inh. (rat B1R) 10 μM: 112%

## COc1cc(C)c(S(=O)(=O)N2CCCCC2COc2nccc(N3CCC(OCCN4CCCC4)(c4cccnc4)CC3)n2)c(C)c1 (stereo not drawn) [Example G-004, 2-[[1-(4-methoxy-2,6-dimethylphenyl)sulfonyl-2-piperidinyl]methoxy]-4-[4-(3-pyridyl)-4-(2-1-pyrrolidinylethoxy)-1-piperidinyl]pyrimidine]
Human B1R
  inhibition at 10 µM: 99%
Rat B1R
  inhibition at 10 µM: 73%

## COc1cc(C)c(S(=O)(=O)N(CCOc2nccc(N3CCC4(CCN(c5ccncc5)CC4)CC3)n2)C2CC2)c(C)c1 [Example G-005, N-cyclopropyl-4-methoxy-2,6-dimethyl-N-[2-[[4-[9-(4-pyridyl)-3,9-diazaspiro[5.5]undecan-3-yl]-2-pyrimidinyl]oxy]ethyl]benzenesulfonamide hydrochloride]
Human B1R
  inhibition at 10 µM: 99%
Rat B1R
  inhibition at 10 µM: 96%

## COc1cc(C)c(S(=O)(=O)N(CCOc2nccc(NCCC3CCN(c4ccncc4)CC3)n2)C2CC2)c(C)c1 [Example G-006, N-cyclopropyl-4-methoxy-2,6-dimethyl-N-[2-[[4-[2-[1-(4-pyridyl)-4-piperidinyl]ethylamino]-2-pyrimidinyl]oxy]ethyl]benzenesulfonamide]
Human B1R
  inhibition at 10 µM: 99%
Rat B1R
  inhibition at 10 µM: 94%

## COc1cc(C)c(S(=O)(=O)N2CCC[C@H]2COc2ccnc(N3CCC(c4cccs4)(N(C)C)CC3)n2)c(C)c1 [H_CC-086, [1-[4-[[(2S)-1-[(4-methoxy-2,6-dimethyl-phenyl)sulfonyl]-pyrrolidin-2-yl]-methoxy]-pyrimidin-2-yl]-4-thiophen-2-yl-piperidin-4-yl]-dimethyl-amine]
Rat B1R
  inhibition at 10 µM: 66%

## COc1cc(C)c(S(=O)(=O)N(C)CCOc2ccnc(N3CCCC3Cc3ccccn3)n2)c(C)c1 (stereo not drawn) [H_CC-087, 4-methoxy-N,2,6-trimethyl-N-[2-[2-[2-(pyridin-2-yl-methyl)-pyrrolidin-1-yl]-pyrimidin-4-yl]oxy-ethyl]-benzenesulfonic acid amide]
Rat B1R
  inhibition at 10 µM: 57%

## COc1cc(C)c(S(=O)(=O)N2CCC[C@H]2COc2ccnc(N3CCCC3Cc3ccccn3)n2)c(C)c1 (stereo partly drawn) [H_CC-088, 4-[[(2S)-1-[(4-methoxy-2,6-dimethyl-phenyl)sulfonyl]-pyrrolidin-2-yl]-methoxy]-2-[2-(pyridin-2-yl-methyl)-pyrrolidin-1-yl]-pyrimidine]
Rat B1R
  inhibition at 10 µM: 67%

## COc1cc(C)c(S(=O)(=O)N(C)CCOc2ccnc(N(C)CCN3CCC(Oc4ccncc4)CC3)n2)c(C)c1 [H_CC-089, 4-methoxy-N,2,6-trimethyl-N-[2-[2-[methyl-[2-(4-pyridin-4-yloxy-piperidin-1-yl)-ethyl]-amino]-pyrimidin-4-yl]oxy-ethyl]benzenesulfonic acid amide]
Rat B1R
  inhibition at 10 µM: 58%

## COc1cc(C)c(S(=O)(=O)N(C)CCOc2ccnc(N3CCC(OCCN4CCCC4)(c4cccc(F)c4)CC3)n2)c(C)c1 [H_CC-090, N-[2-[2-[4-(3-fluorophenyl)-4-(2-pyrrolidin-1-yl-ethoxy)-piperidin-1-yl]-pyrimidin-4-yl]oxy-ethyl]-4-methoxy-N,2,6-trimethyl-benzenesulfonic acid amide]
Rat B1R
  inhibition at 10 µM: 83%

## COc1cc(C)c(S(=O)(=O)N2CCCCC2COc2ccnc(N3CCC(c4cccc(F)c4)(N4CCN(C)CC4)CC3)n2)c(C)c1 (stereo not drawn) [H_CC-091, 2-[4-(3-fluorophenyl)-4-(4-methyl-piperazin-1-yl)-piperidin-1-yl]-4-[[1-[(4-methoxy-2,6-dimethyl-phenyl)sulfonyl]-piperidin-2-yl]-methoxy]-pyrimidine]
Rat B1R
  inhibition at 10 µM: 73%

## COc1cc(C)c(S(=O)(=O)N2CCC[C@H]2COc2ccnc(N3CCC(OCCN4CCCC4)(c4cccc(F)c4)CC3)n2)c(C)c1 [H_CC-092, 2-[4-(3-fluorophenyl)-4-(2-pyrrolidin-1-yl-ethoxy)-piperidin-1-yl]-4-[[(2S)-1-[(4-methoxy-2,6-dimethyl-phenyl)sulfonyl]-pyrrolidin-2-yl]-methoxy]-pyrimidine]
Rat B1R
  inhibition at 10 µM: 50%

## COc1cc(C)c(S(=O)(=O)N(C)C(COc2ccnc(N3[C@@H]4CC[C@H]3CC(Oc3ccncc3)C4)n2)c2ccccc2)c(C)c1 (stereo partly drawn) [H_CC-093, 4-methoxy-N,2,6-trimethyl-N-[1-phenyl-2-[2-[(1S,5R)-3-pyridin-4-yloxy-8-azabicyclo[3.2.1]octan-8-yl]-pyrimidin-4-yl]oxy-ethyl]-benzenesulfonic acid amide]
Rat B1R
  inhibition at 10 µM: 63%

## (1S,5R)-8-[4-[[(2S)-1-[(4-methoxy-2,6-dimethyl-phenyl)sulfonyl]-pyrrolidin-2-yl]-methoxy]-pyrimidin-2-yl]-3-pyridin-4-yloxy-8-azabicyclo[3.2.1]octane [H_CC-052]
Rat B1R
  % inh. (rat B1R) 10 μM: 72%
